Source: the NIST ThermoML archive (doi:10.1016/j.jct.2015.06.024)
Numbers after ± are expanded uncertainties.

Experiment: mn = molality of the nth substance listed, in mol/kg
Conditions: 84.5 kPa, Liquid; for speed of sound: Frequency=3 MHz, Sing-around technique in a fixed-path interferometer; for mass density: Vibrating tube method

CCCO [propan-1-ol] + O
Conditions	mass density, 288.15 K [kg/m3]	mass density, 293.15 K [kg/m3]	mass density, 298.15 K [kg/m3]	mass density, 303.15 K [kg/m3]	mass density, 308.15 K [kg/m3]	speed of sound, 288.15 K [m/s]	speed of sound, 293.15 K [m/s]	speed of sound, 298.15 K [m/s]	speed of sound, 303.15 K [m/s]	speed of sound, 308.15 K [m/s]
m1 = 0.01666	998.928 ± 0.11	998.029 ± 0.11	996.868 ± 0.11	995.468 ± 0.11	993.851 ± 0.11	1467.6 ± 1.2	1483.5 ± 1.2	1497.7 ± 1.2	1509.9 ± 1.2	1520.5 ± 1.2
m1 = 0.03333	998.757 ± 0.11	997.859 ± 0.11	996.698 ± 0.11	995.295 ± 0.11	993.677 ± 0.11	1468.6 ± 1.2	1484.5 ± 1.2	1498.5 ± 1.2	1510.7 ± 1.2	1521.3 ± 1.2
m1 = 0.0494	998.594 ± 0.11	997.697 ± 0.11	996.534 ± 0.11	995.132 ± 0.11	993.506 ± 0.11	1469.5 ± 1.2	1485.4 ± 1.2	1499.3 ± 1.2	1511.5 ± 1.2	1521.9 ± 1.2
m1 = 0.06674	998.419 ± 0.11	997.52 ± 0.11	996.356 ± 0.11	994.954 ± 0.11	993.328 ± 0.11	1470.6 ± 1.2	1486.4 ± 1.2	1500.3 ± 1.2	1512.3 ± 1.2	1522.7 ± 1.2
m1 = 0.08313	998.254 ± 0.11	997.355 ± 0.11	996.19 ± 0.11	994.787 ± 0.11	993.156 ± 0.11	1471.7 ± 1.2	1487.3 ± 1.2	1501.1 ± 1.2	1513.1 ± 1.2	1523.3 ± 1.2
m1 = 0.1002	998.081 ± 0.11	997.18 ± 0.11	996.013 ± 0.11	994.609 ± 0.11	992.983 ± 0.11	1472.7 ± 1.2	1488.3 ± 1.2	1502 ± 1.2	1513.8 ± 1.2	1524 ± 1.2
m1 = 0.134	997.747 ± 0.11	996.843 ± 0.11	995.676 ± 0.11	994.267 ± 0.11	992.634 ± 0.11	1474.8 ± 1.2	1490.1 ± 1.2	1503.6 ± 1.2	1515.4 ± 1.2	1525.4 ± 1.2
m1 = 0.1662	997.429 ± 0.11	996.526 ± 0.11	995.356 ± 0.11	993.945 ± 0.11	992.305 ± 0.11	1476.8 ± 1.2	1491.9 ± 1.2	1505.3 ± 1.2	1516.9 ± 1.2	1526.8 ± 1.2
